Source: patent US20160152579A1, “OXAZOLIDINONE DERIVATIVES AS PPAR LIGANDS” (CONSEJO SUPERIOR DE INVESTIGACIONES CIENTÍFICAS (CSIC), priority 2013, published 2016)

Tests used:
[1] = molecular target: T1, human PPAR-gamma receptor (Homo sapiens, UniProt P37231); assay: Cell transfection and luciferase reporter gene assay, PPAR-gamma activation in MCF-7 cells; assay type: cell-based; settings: luciferase reporter, 16 h treatment
T1 construct: expressed in transfected cells; host or cells: MCF-7 human breast cancer cells, pSG5 expression vector
T1 sequence (P37231 1-505): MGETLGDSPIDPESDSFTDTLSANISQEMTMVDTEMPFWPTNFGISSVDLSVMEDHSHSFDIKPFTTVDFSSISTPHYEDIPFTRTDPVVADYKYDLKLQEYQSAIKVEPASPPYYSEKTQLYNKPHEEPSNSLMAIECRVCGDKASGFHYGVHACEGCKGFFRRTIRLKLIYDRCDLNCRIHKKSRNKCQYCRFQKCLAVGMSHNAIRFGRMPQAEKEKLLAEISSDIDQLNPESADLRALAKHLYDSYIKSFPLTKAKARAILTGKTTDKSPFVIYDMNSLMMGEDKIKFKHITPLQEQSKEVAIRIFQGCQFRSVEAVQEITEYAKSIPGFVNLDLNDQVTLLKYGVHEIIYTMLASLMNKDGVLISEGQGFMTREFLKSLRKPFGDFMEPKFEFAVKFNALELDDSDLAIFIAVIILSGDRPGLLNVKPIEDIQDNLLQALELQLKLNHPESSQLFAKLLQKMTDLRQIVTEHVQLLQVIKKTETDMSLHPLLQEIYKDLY
Method: (§1) The reporter gene assay is an in vitro method used to determine and quantify the existence of physical interactions between proteins, useful for confirming in this case the interaction of the transcription factors PPAR-alpha with co-activator SRC-1, and PPAR-gamma with PPRE in MCF-7 cells.
(§2) For the in vitro experiments, with cell culture all the compounds were dissolved and diluted in dimethylsulfoxide (DMSO) (Sigma Aldrich Spain).
(§3) DNA constructs: Eukaryotic pSG5 expression vector (4100 base pairs, Stratagene Co.) was used as the cDNA expression vehicle for human PPAR-alpha receptor and PPAR-gamma receptor. This construction was used for the in vivo overexpression of the protein in mammalian cells.
(§4) Four copies of the human CPTI gene DR1-type RE (sequence […]) (Ref: Tinahones F J, Moreno-Santos I, Vendrell J, Chacon M R, Garrido-Sanchez L, Garcia-Wasntes E, and Macias-Gonzalez M. Obesity 2012, 20: 488-497) were individually fused with the thymidine kinase promoter in the pGL-2 Basic vector (5598 base pairs, Promega Co.), which lacks a eukaryotic promoter and contains a firefly (Photinus pyralis) luciferase reporter gene. This vector is widely used in the quantitative analysis of factors capable of regulating gene expression in mammalian cells. This pGL-2 Basic vector also has an ampicillin resistance region (gene for β-lactamase). […]

[2] = molecular target: T2, human PPAR-alpha receptor (Homo sapiens, UniProt Q07869); assay: Cell transfection and luciferase reporter gene assay, PPAR-alpha activation in MCF-7 cells; assay type: cell-based; settings: luciferase reporter, 16 h treatment
T2 construct: expressed in transfected cells; host or cells: MCF-7 human breast cancer cells, pSG5 expression vector
Method: as §1, §2, §3, §4

[3] = tested on: Male Wistar albino rats; assay: In vivo assay on food ingestion, acute treatment; parameters: species or system Rattus Norvegicus; settings: for course of the effect on food ingestion over time (30-240 min) / reduction of food ingestion: rats fasted 24 h
Method: Male Wistar albino rats (Rattus Norvegicus) from Charles Rivers Laboratories España, S. A. (Barcelona, Spain), were used, having weights ranging between 300-350 g at the start of the experiments. The animals were caged individually, in controlled temperature (22° C.) and moisture (55%) conditions under a 12-hour light/dark cycle (light off from 8:00 AM to 8:00 PM). The rats had free access to food and water in their corresponding cages. All the training and experimental sessions were carried out after 8:00 PM hours.
All the drugs were prepared in fresh conditions in a solution consisting of 5% Tween-80 in sterile physiological serum. The different doses were prepared in different vials such that Tween-80 was added after weighing the necessary amount of compound. The compound, with its corresponding volume of surfactant, was sonicated and homogenized (with the aid of a magnetic stirrer) for 15-30 minutes. Then, the necessary volume of serum was added until completing the solution.
The compounds were administered intraperitoneally (i.p.) in an acute manner in an administration volume of 1 ml per kg of animal.
Before starting the ingestion experiments, the animals were habituated to being handled. For this purpose, 48-72 hours before each experimental session, the rats were placed in cages where the base material (sawdust) was removed, and small containers with food were placed in the cages for 4 hours. After this initial habituation phase, the animals were deprived of food for 24 hours, always having free access to water.
After said fasting period, the different treatment groups were established, and the base material was removed from the cages, weighing the animals and weighing the small containers with food (commercial laboratory feed). Additionally, the water container was weighed. 15 minutes after administering the compounds, the respective weighed food container was given to each animal, and it was again weighed at different times (30, 60, 120 and 240 minutes). In one case it was weighed 24 hours after being given.
Food consumption was represented as relative accumulated consumption (g of food per kg of animal). The water containers were also weighed at the end of the experiment.

T2 sequence (Q07869 whole entry): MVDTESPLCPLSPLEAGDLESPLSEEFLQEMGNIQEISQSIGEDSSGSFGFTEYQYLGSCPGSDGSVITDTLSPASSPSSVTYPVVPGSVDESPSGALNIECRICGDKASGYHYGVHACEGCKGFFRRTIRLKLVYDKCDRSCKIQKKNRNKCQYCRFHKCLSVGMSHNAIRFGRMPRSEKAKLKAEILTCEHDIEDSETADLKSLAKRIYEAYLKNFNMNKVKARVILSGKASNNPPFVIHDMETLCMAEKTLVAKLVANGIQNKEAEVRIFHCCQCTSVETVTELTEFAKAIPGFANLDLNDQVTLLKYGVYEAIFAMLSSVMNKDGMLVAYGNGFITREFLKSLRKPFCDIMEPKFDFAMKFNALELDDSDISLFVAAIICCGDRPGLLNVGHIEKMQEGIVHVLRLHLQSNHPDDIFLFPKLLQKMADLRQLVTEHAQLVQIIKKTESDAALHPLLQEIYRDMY
T2 sequence (P19793 whole entry partner): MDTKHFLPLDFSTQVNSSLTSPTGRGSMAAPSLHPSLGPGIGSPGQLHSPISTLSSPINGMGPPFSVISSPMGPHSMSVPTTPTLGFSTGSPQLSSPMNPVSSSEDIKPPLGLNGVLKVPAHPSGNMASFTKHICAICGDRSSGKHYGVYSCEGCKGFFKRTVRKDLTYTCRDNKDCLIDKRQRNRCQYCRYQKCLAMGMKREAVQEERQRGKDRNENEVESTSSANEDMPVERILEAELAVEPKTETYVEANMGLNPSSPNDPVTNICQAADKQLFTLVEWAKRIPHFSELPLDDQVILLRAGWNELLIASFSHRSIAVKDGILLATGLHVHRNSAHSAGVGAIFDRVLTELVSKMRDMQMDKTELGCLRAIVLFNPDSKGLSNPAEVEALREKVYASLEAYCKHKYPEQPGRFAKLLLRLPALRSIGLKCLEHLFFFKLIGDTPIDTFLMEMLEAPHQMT
T2 sequence (Q15788 whole entry partner): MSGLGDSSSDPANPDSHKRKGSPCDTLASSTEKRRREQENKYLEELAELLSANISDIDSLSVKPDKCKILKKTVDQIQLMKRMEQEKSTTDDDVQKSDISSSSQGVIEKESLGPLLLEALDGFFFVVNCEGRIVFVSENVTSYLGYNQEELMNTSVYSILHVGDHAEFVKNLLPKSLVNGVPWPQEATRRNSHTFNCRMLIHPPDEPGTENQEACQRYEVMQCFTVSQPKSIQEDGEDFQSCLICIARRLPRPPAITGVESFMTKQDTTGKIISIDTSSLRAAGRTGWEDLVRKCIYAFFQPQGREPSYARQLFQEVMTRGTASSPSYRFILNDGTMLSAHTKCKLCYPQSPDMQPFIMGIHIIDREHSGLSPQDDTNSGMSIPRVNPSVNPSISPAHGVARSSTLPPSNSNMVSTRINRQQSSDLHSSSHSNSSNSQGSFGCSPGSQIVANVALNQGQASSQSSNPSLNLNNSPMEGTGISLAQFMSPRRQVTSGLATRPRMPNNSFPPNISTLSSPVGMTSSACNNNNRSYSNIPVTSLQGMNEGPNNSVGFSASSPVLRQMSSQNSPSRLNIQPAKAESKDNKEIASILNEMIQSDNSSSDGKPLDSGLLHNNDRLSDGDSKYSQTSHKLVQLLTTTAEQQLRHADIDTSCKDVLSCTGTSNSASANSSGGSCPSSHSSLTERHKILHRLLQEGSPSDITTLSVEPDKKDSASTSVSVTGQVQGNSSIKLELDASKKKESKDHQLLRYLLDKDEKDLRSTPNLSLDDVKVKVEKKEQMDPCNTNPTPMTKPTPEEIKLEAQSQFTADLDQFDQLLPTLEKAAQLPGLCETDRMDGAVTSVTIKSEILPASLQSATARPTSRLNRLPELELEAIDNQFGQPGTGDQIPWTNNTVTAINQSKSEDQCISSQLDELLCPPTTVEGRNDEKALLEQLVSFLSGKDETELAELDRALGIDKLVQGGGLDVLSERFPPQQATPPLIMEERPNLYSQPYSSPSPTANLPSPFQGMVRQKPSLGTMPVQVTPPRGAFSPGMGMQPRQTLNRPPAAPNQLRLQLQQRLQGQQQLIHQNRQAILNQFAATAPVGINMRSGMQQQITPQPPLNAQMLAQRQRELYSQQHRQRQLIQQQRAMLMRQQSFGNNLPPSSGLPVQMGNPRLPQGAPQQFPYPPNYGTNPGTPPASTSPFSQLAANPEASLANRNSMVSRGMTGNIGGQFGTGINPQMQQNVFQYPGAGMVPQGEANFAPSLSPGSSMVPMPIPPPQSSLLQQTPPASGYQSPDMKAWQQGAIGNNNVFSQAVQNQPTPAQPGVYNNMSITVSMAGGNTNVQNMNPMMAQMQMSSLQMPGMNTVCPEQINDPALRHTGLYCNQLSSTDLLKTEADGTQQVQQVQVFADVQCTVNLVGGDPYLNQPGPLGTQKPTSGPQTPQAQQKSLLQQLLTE

Structure (SMILES)	EC50 [1] [nM]	EC50 [2] [nM]	course of the effect on food ingestion over time (30-240 min) ([3]; acute i.p. administration)	reduction of food ingestion ([3]; effective dose 3.0 mg/kg i.p., FIG. 1)	effect on accumulated food ingestion 24 hours after administration ([3]; 24 h after i.p. administration, FIG. 3)	dose dependence of the effect on food ingestion ([3]; acute i.p. administration, FIG. 2)	reduction of food ingestion ([3]; effective dose 1.0 mg/kg i.p., FIG. 2)
CC(C)(C)c1ccc(CNC(=O)c2ccc(NC(=O)c3cccc(CN4C(=O)OC[C@H]4Cc4ccccc4)c3)cc2)cc1 [Compound 1, (R)-3-((4-benzyl-2-oxooxazolidin-3-yl)methyl)-N-(4-((4-(tert-butyl)benzyl)carbamoyl)phenyl)benzamide]	1290	670 ± 157	effect disappearing 240 minutes after the administration	about 50%			
CCCCCNC(=O)c1ccc(NC(=O)c2cccc(CN3C(=O)OC[C@H]3Cc3ccccc3)c2)cc1 [Compound 5, (R)-3-((4-benzyl-2-oxooxazolidin-3-yl)methyl)-N-(4-(pentylcarbamoyl)phenyl)benzamide]	1620	821 ± 139	effect maintained over time after 240 minutes		still has an effect 24 hours after administration	active in a dose-dependent manner	about 50%
